Paper PMC9822940, “Antiplasmodial activity, structure–activity relationship and studies on the action of novel benzimidazole derivatives” (Scientific Reports, 2023)

Assays:
[1] = Cytotoxicity on epithelial Vero cell cultures; type: cell-based; conditions: African green monkey, epithelial Vero cells
Method: (§1) In vitro activity of BZ. All BZ derivatives were tested at 10 μM against the HB3 strain of Pf, and for those compounds with a percentage of growth inhibition (% GI) higher than 50%, the IC50 values were determined. In addition, their cytotoxicity on epithelial Vero cell cultures was evaluated to calculate their selectivity indexes (SI), Table 1. An index of 10 or above is expected for a lead compound.

P. falciparum HB3 strain = experiment: Antiplasmodial activity against P. falciparum HB3 strain in culture; type: cell-based, Plasmodium falciparum; conditions: for IC50 / inhibition at 10 µM: Plasmodium falciparum; for IC50: HB3 strain (chloroquine-sensitive), read-out: IC50; for inhibition at 10 µM: HB3 strain, read-out: GI (growth inhibition percentage); for SI (selectivity index): Vero CC50 versus HB3 IC50
Method: as §1
(§2) The chloroquine-sensitive […] and chloroquine-resistance 7G8 strain […] of P. falciparum were used throughout. Infected erythrocytes were kept in culture using the protocol established by Haynes et al.[44], basically utilizing human O^+ erythrocytes kept in an RPMI medium supplemented with glutamine and 10% human serum incubated in an atmosphere of 90% N2, 5% O2 and 5% CO2.

[2] = system: 7G8 P. falciparum parasites; experiment: Antiplasmodial activity against chloroquine-resistant 7G8 P. falciparum; type: cell-based, Plasmodium falciparum; conditions: for IC50: Plasmodium falciparum, 7G8 strain (chloroquine-resistant), read-out: 7G8 Pf IC50; for SI (selectivity index): Vero CC50 versus 7G8 IC50
Description: (§3) The mechanism used by Pf to prevent intoxication with free heme once hemoglobin is degraded is to form hemozoin crystals that capture heme. Mefloquine and other common antimalarials interfere with this pathway, resulting in the death of the parasite.
as §2

[3] = system: mitochondria of P. falciparum parasites; experiment: Mitochondrial membrane potential measurement; type: cell-based, Plasmodium falciparum; conditions: 1 µM
Method: Changes in mitochondrial membrane potential, another common hallmark of programed cell death, were analyzed in the samples that had promising activities toward P. falciparum cultures. The results of adding 1 µM of each compound can be seen in Fig. 5. […] This could probably be explained by the presence of the unsubstituted picolinamide fragment, therefore more polar and less soluble in the membrane, making it harder or slower to permeate into the erythrocyte and then into the parasite, with respect to the other three.  Figure 5 Changes to mitochondrial membrane potential caused by antiplasmodial compounds. Fluorometry was used to measure the effects on the mitochondria of P. falciparum parasites caused by treatment with compounds that show activity against their growth in culture. A membrane disruptor (CCCP) was added as a positive control and untreated cultures were used as the negative one. All compounds were tested at 1 µM in triplicates, n = 3. (a) BZ 1, (b) BZ 5, (c) BZ 16, (d) BZ 26 and (e) BZ 33. *p < 0.05, **p < 0.01, ***p < 0.005. The membrane potential was measured in a flow cytometer after staining P. falciparum cultures with the DiOC6(3) dye at 10 nM (Thermo Fisher, Waltham, MA, USA). Samples were incubated for 45 min at 37 °C in the dark. Following incubation, cells were washed and resuspended using 200 µL of phosphate-buffered saline (PBS) and analyzed immediately after. The mitochondrial membrane disrupter, CCCP (50 µM), incubated for 1 h, was used as a positive control. The fluorescence intensity of stained cells was calculated using FCS Express 4 (De Novo Software, Glendale, CA, USA). As negative control, uninfected red blood cells were used and their signal was subtracted from that of the infected red blood cells.

[4] = system: plasma membrane of parasite culture / erythrocytes; experiment: Propidium iodide incorporation assay (membrane integrity); type: cell-based, Plasmodium falciparum; conditions: 3 h incubation, fluorometry
Method: The integrity of the plasma membrane under the action of certain antiplasmodial compounds was assessed through the use of two methodologies. First, the absorption of propidium iodide, to which intact membranes are impermeable, was measured. Second, the presence of heme in the culture media, which indicates a leakage of the contents of the erythrocyte or its complete lysis (hemolysis), was analyzed.
Figure 3 Membrane integrity tests. BZ 1, 5, 16, 26 and 33 were tested in triplicates in two independent experiments. (a) Incorporation of propidium iodide (PI) was analyzed through fluorometry after 3 h incubation with the compounds. (b) Hemolysis was measured by light absorbance 24 h after exposure to the compounds. One-way ANOVA with Turkey´s comparison was used for analysis of significance. ****p < 0.001.
Manufacturer’s instructions (BD PharmingenTM) were followed. Briefly, 200 µL of parasite culture at 2% parasitemia or uninfected erythrocytes, at 2% hematocrit, were incubated with each compound for 3 h at 37 °C. Untreated samples were cultured in the same plate. After incubation, 2 µL of Propidium Iodide was added and incubated for 15 min at RT while protected from light. Fluorescence was read in a fluorometer at excitation and emission wavelengths of 485/20 and 645/40 nm, respectively.

[5] = system: P. falciparum-infected cultures; experiment: Intracellular reactive oxygen species (ROS) production in P. falciparum; type: cell-based, Plasmodium falciparum; conditions: 1 µM; 0.5, 6 and 9 h
Method: Also, the intracellular production of oxygen reactive species (ROS) was monitored for the same antiplasmodial compounds. The level of ROS production was compared between the samples and that of the untreated parasites. […] This would point to the conformation of such molecules targeting a specific molecule or process of the parasite.  Figure 4 Effect of selected benzimidazole derivatives on ROS production. Five potent compounds were incubated with P. falciparum-infected cultures and the production of reactive oxygen species was measured through fluorometry at 0.5, 6 and 9 h after their addition at 1 µM. As positive control, a sample containing hydrogen peroxide at 200 μM was added. Samples were measured in triplicates. One-way ANOVA with Turkey´s comparison was used to measure significance with respect to the untreated control at each different time point. n = 2. (a) BZ 1, (b) BZ 5, (c) BZ 16, (d) BZ 26 and (e) BZ 33. *p < 0.05, **p < 0.01, ***p < 0.005. Intracellular ROS formation was measured in a fluorimeter using the CM-H2DCFDA reactive dye from Molecular Probes® (Eugene OR, USA). Hydrogen peroxide was used as a positive control at a final concentration of 200 µM. The level of ROS present was inferred through the amount of oxidized DCF[45].

[6] = system: hemozoin biocrystallization in P. falciparum; experiment: Hemozoin biocrystallization / beta-hemozoin formation; type: cell-based, Plasmodium falciparum; conditions: Pf cultures, 36 h
Description: as §3

Compound | CC50 [1] | IC50 (P. falciparum HB3 strain) | inhibition at 10 µM (P. falciparum HB3 strain) | IC50 [2] | SI (selectivity index) [2] | Change in mitochondrial membrane potential versus untreated control [3] | Membrane integrity: incorporation of propidium iodide [4] | Intracellular ROS production versus untreated parasites [5] | Interference with hemozoin biocrystallization [6] | SI (selectivity index) (P. falciparum HB3 strain)
Cc1ccc2[nH]c(NC(=O)c3ccccn3)nc2c1 [BZ 1, N-(5-methyl-1H-benzimidazol-2-yl)picolinamide] | 14800 nM | 980 nM | 93.5% | 950 nM | 15.6 | do not show a difference with the untreated control up to t = 6 h | best in keeping the membrane well preserved | early significant decrease in the natural level of ROS |  | 
Cc1ccc(C(=O)Nc2nc3cc(Cl)ccc3[nH]2)nc1 [BZ 16, N-(5-Chloro-1H-benzimidazol-2-yl)-5-methylpicolinamide] | 7200 nM | 2400 nM | 85.6% | 2600 nM | 2.7 |  | some permeation in the membrane, although not significant | no significant difference at any point | small level of disruption | 3.0
COc1ccc2[nH]c(NC(=O)c3ccc(C)cn3)nc2c1 [BZ 26, N-(5-Methoxy-1H-benzimidazol-2-yl)-5-methylpicolinamide] | 11100 nM | 3300 nM | 93.5% |  |  | shows an effect from t = 6 h onward | some permeation in the membrane, although not significant | no significant difference at any point |  | 3.4
Cc1cc2nc(NC(=O)c3ccccn3)[nH]c2cc1C [BZ 33, N-(5,6-Dimethyl-1H-benzimidazol-2-yl)picolinamide] | 13200 nM | 850 nM | 100% |  |  | do not show a difference with the untreated control up to t = 6 h | best in keeping the membrane well preserved | early significant decrease in the natural level of ROS |  | 
